In this test the test system is CD3+/CD8+ cells (killer T-cells). In words: CD69 expression of PBMCs cultured with LDN or NTX (flow cytometry). The test is classed as cell-based. The conditions noted are these: 48 h. Here is the method:
Peripheral-blood mononuclear cells were isolated from whole blood or from the residue product of leukoreduction of whole blood from pathologically healthy donors using Histopaque-1077. The mononuclear fraction was harvested and red blood cell contamination removed by incubation in hypotonic ammonium chloride. Cells were washed in phosphate buffered saline (PBS) and platelet contamination removed by centrifugation at 200 g for 10 min, re-suspended at a concentration of 1×10^6 ml in RPMI-1640 culture medium. […] Peripheral-blood mononuclear cells were washed twice in wash buffer (PBS containing 1% (v/v) FBS and 0.09% (v/v) NaN3), and stained for 30 min at 4° C. with the relevant and stated antibodies for assessment of immune cell profile. Cells were washed in wash buffer and fixed in 4% paraformaldehyde for 20 min at 4° C. Expressions of the surface markers were analysed using a BD Science LSR II Flow Cytometer with dedicated proprietary software.
The activation state of CD3+ cells is indicated by CD69 expression; higher levels of CD69 expression correlate with increased CD3+ activation. CD3+ cells are T cell co-receptors that help to activate both the cytotoxic T cell (CD8+ naive T cells) and also T helper cells (CD4+ naive T cells). […] Thus, when LDN has completed its priming and the gene expressions are as determined in Example 1, the immune system is suitably boosted.

Take `O=C1CC[C@@]2(O)[C@H]3Cc4ccc(O)c5c4[C@@]2(CCN3CC2CC2)[C@H]1O5` [NTX, morphinan-6-one,17-(cyclopropylmethyl)-4,5-epoxy-3,14-dihydroxy-(5a)]: the “CD69 expression in CD3+/CD8+ cells” value by setting is: (10 nM naltrexone (LDN)) “increased”; (10 uM naltrexone (NTX)) “did not increase”.

For the origin of these results see patent publication US12497663B2, “Method of monitoring treatment” (LDN Pharma Limited, priority 2019, dated 2025).
